# In article PMC6757289, “Design and Characterization of SGK3-PROTAC1, an Isoform Specific SGK3 Kinase PROTAC Degrader” (ACS Chemical Biology, 2019):
# Target: T1, SGK3 (Homo sapiens, UniProt Q96BR1)
# T1 sequence (Q96BR1 1-496): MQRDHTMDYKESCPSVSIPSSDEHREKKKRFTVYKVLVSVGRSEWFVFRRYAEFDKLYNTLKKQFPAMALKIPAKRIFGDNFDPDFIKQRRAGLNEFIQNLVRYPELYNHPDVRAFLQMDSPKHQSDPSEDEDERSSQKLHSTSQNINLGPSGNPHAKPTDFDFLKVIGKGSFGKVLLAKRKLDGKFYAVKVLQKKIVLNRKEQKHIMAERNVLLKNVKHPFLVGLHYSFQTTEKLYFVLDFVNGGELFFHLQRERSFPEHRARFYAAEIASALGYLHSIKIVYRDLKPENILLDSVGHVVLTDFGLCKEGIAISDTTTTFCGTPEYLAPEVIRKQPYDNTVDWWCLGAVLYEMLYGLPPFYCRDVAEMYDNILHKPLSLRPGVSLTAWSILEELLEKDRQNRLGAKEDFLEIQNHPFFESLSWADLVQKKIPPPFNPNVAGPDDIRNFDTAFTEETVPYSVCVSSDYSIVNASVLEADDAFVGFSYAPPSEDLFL
# Assay: TMT global proteomic analysis of HEK293 cells
# Format: cell-based
# Set-up: global proteomic analysis of HEK293 cells treated in the presence or absence of 0.3 μM SGK3-PROTAC1; endogenous in cells; host or cells: HEK293
# Conditions: HEK293, 0.3 μM, 8 h
# Procedure: To establish the specificity of SGK3-PROTAC1 employing an unbiased approach, we performed quantitative Tandem–Mass–Tag (TMT)-labeled global proteomic analysis of HEK293 cells treated in the presence or absence of 0.3 μM SGK3-PROTAC1 compared to either 0.3 μM cisSGK3-PROTAC1 or DMSO for 8 h. Experiments were undertaken in triplicate, and analysis in Proteome Discoverer v2.2 using the Mascot search engine allowed relative quantification of 8766 proteins.
# Figure 4 TMT proteomic analysis of HEK293 cells treated with SGK3-PROTAC1. (A) Cells were treated with DMSO (control), SGK3-PROTAC1 (0.3 μM), or cisSGK3-PROTAC1 (0.3 μM) for 8 h and lysed. Lysates were subjected to immunoblot analysis with the indicated antibodies. (B) Lysates were examined by quantitative proteomics. […]
# Cell culture and proteomic sample preparation
# Cells pellets were lysed with 2 ml of lysis buffer (8 M Urea, 50 mM Ammonium bicarbonate containing protease inhibitor and phosphatase inhibitor). The sample were left on ice for 15 min and were then sonicated for 5 min in ice-cold water bath under high intensity with 30 sec on and off. After sonication, benzonase® endonuclease (Merck Millipore) with the volume ratio of 1: 100 were added into the lysate to degrade DNA and RNA. The lysate were then centrifuged at 12,000 rpm for 15 min at 4 °C, and supernatants were transferred into new eppendorf tubes. The protein concentration were measured with BCA assay (Pierce™ BCA Protein Assay Kit, Thermo). The lysate from each sample was reduced with 5 mM DTT at 45 °C for 30 min. Lysates were briefly centrifuged and were cool down to room temperature before alkylation in the dark with 10 mM iodoacetamide at room temperature. The alkylation was then quenched by the addition of 5 mM DTT. Samples were first digested by Lys-C with the weight ratio of 1:200 (w/w) for 4 h at 30 °c. Then, sample were diluted with 50 mM ammonium bicarbonate to 1.5 M Urea concentration. Samples were then digested with trypsin (Pierce trypsin, Thermo) at an enzyme to protein ratio of 1:50 (w/w) at room temperature with gentle shaking for overnight.
# The digest was stopped by the addition of 1% TFA (v/v), centrifuged at 10,000 g for 10 min at room temperature.
# The supernatant were desalted on 200 mg SepPak tC18 cartridge (Waters). Desalted peptides were dried by vacuum centrifugation using Speedvac (Thermo).
# TMT labelling and Basic C18 reverse phase (bRP) chromatography fractionation Each sample (200 μg of peptides each) was re-suspended in 100 μL of 100 mM TEAB buffer. The TMT labelling reagents were equilibrated to room temperature and 41 μL anhydrous acetonitrile was added to each reagent channel and softly vortexed for 10 min. Peptides were transferred to the corresponding TMT channels and incubated for 1 h at room temperature. The reaction was quenched with 8 μL of 5% hydroxylamine. To ensure complete labelling, 1 µg of labelled samples from each channel were analyzed by LC-MS/MS prior to mix. After evaluation, the complete TMT labelled 9 samples were then combined, acidified and dried. Sep-Pak desalting was then performed and the elution was dried to completeness.
# Ultimate 3000 high-pressure liquid chromatography (HPLC) system (Dionex) were used for basic C18 reverse phase chromatography fractionation operating at 569 µL/min with two buffers: buffer A (10 mM ammonium formate, pH 10) and buffer B (80% ACN, 10 mM ammonium formate, pH 10). The desalted mixture of TMT-labelled peptides were resuspended in 200 µL of buffer A (10 mM ammonium formate, pH10) and separated on a C18 reverse phase column (4.6 × 250 mm, 3.5 μm, Waters) with a gradient from 3% B to 12.5 % B in 10 min, […]
# min, 100% for 5 min, ramping to 3% B in 2.5 min and then 3% for 10 min. A total of 90 fractions (1 min per fraction) were collected before further concatenation into 30 final fractions. Each fraction was then dried and desalted over a C18 StageTip prior to analysis by mass spectrometry. […]
structure (smiles),measurement,setting,value
Cc1ccc(F)c(S(=O)(=O)Nc2ccc(-c3nc(OC[C@H]4CN(CCCCCCOCCOCCOCC(=O)N[C@H](C(=O)N5C[C@H](O)C[C@H]5C(=O)NCc5ccc(-c6scnc6C)cc5)C(C)(C)C)CCO4)c4cn[nH]c4n3)cc2)c1 [SGK3-PROTAC1],Abundances (Grouped),,60.6
same,Ratio: (SGK3-PROTAC1) / (cSGK3-PROTAC1),,0.526
same,Ratio: (compound) / (DMSO),,0.484
same,selectivity in global proteome (8766 proteins quantified),vs cisSGK3-PROTAC1 or DMSO,only SGK3 expression being significantly reduced
Cc1ccc(F)c(S(=O)(=O)Nc2ccc(-c3nc(OC[C@H]4CN(CCCCCCOCCOCCOCC(=O)N[C@H](C(=O)N5C[C@@H](O)C[C@H]5C(=O)NCc5ccc(-c6scnc6C)cc5)C(C)(C)C)CCO4)c4cn[nH]c4n3)cc2)c1 [cisSGK3-PROTAC1],Abundances (Grouped),,115.2
same,Ratio: (compound) / (DMSO),,0.949
